pIC50: −log10 of the molar value. Counter-ions that a name gives are not always drawn.
target: HPK1 (Homo sapiens (Human), UniProt Q92918); assay: HPK1 kinase activity inhibition test (ADP-Glo, luminescence); assay type: biochemical; conditions: HPK1 5 nM, ATP 2 μM, read-out: IC50, inhibitory effects of compounds on HPK1 kinase activity
Description: 1. HPK1 Kinase Activity Inhibition Test
The kinase activity of HPK1 is manifested as activity of autophosphorylation and phosphorylation of downstream substrates. In the process of autophosphorylation, additional substrates are not required, and ATP is consumed to generate ADP. The amount of the product was measured by ADP-Glo reagent and luminescence method to reflect kinase activity.
Test compounds: compounds prepared in the examples of this application.
Prepare compound stock solution: dissolve the compound to be tested in 100% DMSO to make a 10 mM stock solution;
Prepare 4× Kinase Reaction Buffer:
Prepare 2×HPK1 Kinase Solution:
Dilute the stock solution of the compound to be tested by 5 times with […], make a 4-fold equal dilution in a 96-well dilution plate, add 1 μL of the compound to 49 µL of kinase reaction buffer, and shake on a microplate shaker for 20 minutes. Transfer 2 μL of […] kinase solution to 384 reaction plate, add 1 μL of the test compound to the 384 reaction plate (Greiner, 784075), centrifuge for 1 minute (1000 rpm/min), incubate at 25° C. for 10 minutes. Transfer […] of the 4×ATP mixture to a 384 reaction plate, centrifuge for 1 minute (1000 rpm/mm), and incubate at 25° C. for 60 minutes. In the reaction system, the final concentration of DMSO was […]. Transfer 4 μL of ADP-Glo to a 384 reaction plate, centrifuge for 1 minute (1000 rpm/min), and incubate at 25° C. for 40 minutes. Transfer 8 μL detection solution to a 384 reaction plate, centrifuge for 1 minute (1000 rpm/min), and incubate at 25° C. for 40 minutes. The […] signal was read using a Biotek multi-function plate reader, and the […] (half inhibitory concentration) of the compound was obtained using a four-coefficient nonlinear fitting formula.

Sequence of HPK1 (Q92918 whole entry): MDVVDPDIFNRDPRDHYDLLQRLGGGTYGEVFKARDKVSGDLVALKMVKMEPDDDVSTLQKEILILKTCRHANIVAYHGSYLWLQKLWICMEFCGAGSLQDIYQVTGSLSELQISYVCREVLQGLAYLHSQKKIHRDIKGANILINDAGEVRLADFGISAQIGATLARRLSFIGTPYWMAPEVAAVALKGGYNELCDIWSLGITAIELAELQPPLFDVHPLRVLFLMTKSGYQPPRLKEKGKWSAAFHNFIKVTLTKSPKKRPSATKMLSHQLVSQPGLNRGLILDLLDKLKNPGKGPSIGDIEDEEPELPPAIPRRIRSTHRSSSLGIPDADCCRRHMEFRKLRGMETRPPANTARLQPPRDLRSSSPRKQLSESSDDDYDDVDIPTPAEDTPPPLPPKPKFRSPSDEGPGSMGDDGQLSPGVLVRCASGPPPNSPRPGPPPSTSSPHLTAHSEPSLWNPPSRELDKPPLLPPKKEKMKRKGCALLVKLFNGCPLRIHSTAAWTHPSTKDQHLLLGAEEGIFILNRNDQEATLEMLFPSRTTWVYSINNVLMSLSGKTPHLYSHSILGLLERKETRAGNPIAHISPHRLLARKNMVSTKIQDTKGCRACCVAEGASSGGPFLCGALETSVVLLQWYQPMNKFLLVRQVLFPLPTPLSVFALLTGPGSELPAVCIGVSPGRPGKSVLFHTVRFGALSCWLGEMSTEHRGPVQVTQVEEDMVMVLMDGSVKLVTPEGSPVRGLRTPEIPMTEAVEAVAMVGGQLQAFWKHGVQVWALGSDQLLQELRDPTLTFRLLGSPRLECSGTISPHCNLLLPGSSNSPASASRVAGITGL

Row | Structure (SMILES) | pIC50
1 | Cc1cccc(F)c1-n1nc2c(-c3ccc4c(c3)C(CN)N(C)CC4)n[nH]c2cc1=O (stereo not shown) [Compound 186, 3-(1-(aminomethyl)-2-methyl-1,2,3,4-tetrahydroisoquinolin-7-yl)-5-(2-fluoro-6-methylphenyl)-1H-pyrazolo[4,3-c]pyridazin-6(5H)-one hydrochloride] | 5.70 to 6.30
2 | Cc1cccc(F)c1-n1nc2c(-c3ccc(CN4CCN(C)CC4=O)cc3)n[nH]c2cc1=O [Compound 15, 5-(2-fluoro-6-methylphenyl)-3-(4-((4-methyl-2-oxo-piperazin-1-yl)methyl)phenyl)-1H-pyrazolo[4,3-c]pyridazin-6(5H)-one] | 5.70 to 6.30
3 | Cc1cccc(F)c1-n1nc2c(-c3ccc(N4CCN(C)CC4=O)cc3)n[nH]c2cc1=O [Compound 12, 5-(2-fluoro-6-methylphenyl)-3-(4-(4-methyl-2-oxopiperazin-1-yl)phenyl)-1H-pyrazolo[4,3-c]pyridazin-6(5H)-one] | 5.70 to 6.30
4 | Cc1cccc(F)c1-n1nc2c(-c3cnn(C)c3)n[nH]c2cc1=O [Compound 17, 5-(2-fluoro-6-methylphenyl)-3-(1-methyl-1H-pyrazol-4-yl)-1H-pyrazolo[4,3-c]pyridazin-6(5H)-one] | 5.70 to 6.30
5 | COc1ccc(-n2nc3c(-c4ccc(C5CCN(C)CC5)cc4)n[nH]c3cc2=O)c(OC)c1 [Compound 26, 5-(2,4-dimethoxyphenyl)-3-(4-(1-methylpiperidin-4-yl)phenyl)-1H-pyrazolo[4,3-c]pyridazin-6(5H)-one] | 5.70 to 6.30
6 | Cc1cccc(F)c1-n1nc2c(-c3ccc(N4CC5CC(C4)N5C)cc3)n[nH]c2cc1=O [Compound 91, 5-(2-fluoro-6-methylphenyl)-3-(4-(6-methyl-3,6-diazabicyclo[3.1.1]heptan-3-yl)phenyl)-1H-pyrazolo[4,3-c]pyridazin-6(5H)-one] | ≥ 7.30
7 | Cc1cccc(F)c1-n1nc2c(-c3cnn(C4CCN(C)CC4)c3)n[nH]c2cc1=O [Compound 19, 5-(2-fluoro-6-methylphenyl)-3-(1-(1-methylpiperidin-4-yl)-1H-pyrazol-4-yl)-1H-pyrazolo[4,3-c]pyridazin-6(5H)-one] | 5.70 to 6.30
8 | Cc1cccc(F)c1-n1nc2c(-c3ccc4c(c3)C(CO)N(C)CC4)n[nH]c2cc1=O (stereo not shown) [Compound 184, 5-(2-fluoro-6-methylphenyl)-3-(1-(hydroxymethyl)-2-methyl-1,2,3,4-tetrahydroisoquinolin-7-yl)-1H-pyrazolo[4,3-c]pyridazin-6(5H)-one] | 6.30 to 7.30
9 | Cc1cccc(F)c1-n1nc2c(-c3cc4c(cc3F)CCN(C)C4)n[nH]c2cc1=O [Compound 189, 3-(6-fluoro-2-methyl-1,2,3,4-tetrahydroisoquinolin-7-yl)-5-(2-fluoro-6-methylphenyl)-1H-pyrazolo[4,3-c]pyridazin-6(5H)-one] | 6.30 to 7.30
10 | Cc1cccc(F)c1-n1nc2c(-c3ccc4c(c3)CN(C3CCOCC3)CC4)n[nH]c2cc1=O [Compound 167, 5-(2-fluoro-6-methylphenyl)-3-(2-(tetrahydro-2H-pyran-4-yl)-1,2,3,4-tetrahydroisoquinolin-7-yl)-1H-pyrazolo[4,3-c]pyridazin-6(5H)-one] | 6.30 to 7.30
11 | Cc1cccc(F)c1-n1nc2c(-c3ccc4c(c3)CN(C)C(=O)C4)n[nH]c2cc1=O [Compound 182, 7-(5-(2-fluoro-6-methylphenyl)-6-oxo-5,6-dihydro-1H-pyrazolo[4,3-c]pyridazin-3-yl)-2-methyl-1,2-dihydroisoquinolin-3(4H)-one] | 6.30 to 7.30
12 | Cc1cccc(F)c1-n1nc2c(-c3ccc4c(c3F)CN(C)CC4)n[nH]c2cc1=O [Compound 188, 3-(8-fluoro-2-methyl-1,2,3,4-tetrahydroisoquinolin-7-yl)-5-(2-fluoro-6-methylphenyl)-1H-pyrazolo[4,3-c]pyridazin-6(5H)-one] | 6.30 to 7.30

Continued, values first:

Row | pIC50 | Structure (SMILES)
13 | 6.30 to 7.30 | Cc1cc(C#N)cc(F)c1-n1nc2c(-c3ccc4c(c3)CN(C(=O)CO)CC4)n[nH]c2cc1=O [Compound 172, 3-fluoro-4-(3-(2-(2-hydroxylacetyl)-1,2,3,4-tetrahydroisoquinolin-7-yl)-6-oxo-1H-pyrazolo[4,3-c]pyridazin-5(6H)-yl)-5-methylbenzonitrile]
14 | 6.30 to 7.30 | Cc1cccc(F)c1-n1nc2c(-c3ccc4c(c3)CN(C(=O)CN3CCOCC3)CC4)n[nH]c2cc1=O [Compound 169, 5-(2-fluoro-6-methylphenyl)-3-(2-(2-morpholinoacetyl)-1,2,3,4-tetrahydroisoquinolin-7-yl)-1H-pyrazolo[4,3-c]pyridazin-6(5H)-one]
15 | 6.30 to 7.30 | COc1cnccc1-n1nc2c(-c3ccc(N4CCN(C)CC4)cc3)n[nH]c2cc1=O [Compound 153, 5-(3-methoxypyrid-4-yl)-3-(4-(4-methylpiperazin-1-yl)phenyl)-1H-pyrazolo[4,3-c]pyridazin-6(5H)-one]
16 | 6.30 to 7.30 | CNCc1cc(-c2n[nH]c3cc(=O)n(-c4c(C)cccc4F)nc23)ccc1N1CCN(C)CC1 [Compound 96, 3-(3-((methylamino)methyl)-4-(4-methylpiperazin-1-yl)phenyl)-5-(2-fluoro-6-methylphenyl)-1H-pyrazolo[4,3-c]pyridazin-6(5H)-one]
17 | 6.30 to 7.30 | Cc1cccc(F)c1-n1nc2c(-c3ccc(N4CCN(C)CC4)cc3)n[nH]c2c(C)c1=O [Compound 55, 5-(2-fluoro-6-methylphenyl)-7-methyl-3-(4-(4-methylpiperazin-1-yl)phenyl)-1H-pyrazolo[4,3-c]pyridazin-6(5H)-one]
18 | ≥ 7.30 | CCN1CCN(c2ccc(-c3n[nH]c4cc(=O)n(-c5c(C)cccc5F)nc34)cn2)CC1 [Compound 101, 3-(6-(4-ethylpiperazin-1-yl)pyrid-3-yl)-5-(2-fluoro-6-methylphenyl)-1H-pyrazolo[4,3-c]pyridazin-6(5H)-one]
19 | 6.30 to 7.30 | COc1cccc(F)c1-n1nc2c(-c3cccc(N4CCN(C)CC4)c3F)n[nH]c2cc1=O [Compound 209, 3-(2-fluoro-3-(4-methylpiperazin-1-yl)phenyl)-5-(2-fluoro-6-methoxyphenyl)-1H-pyrazolo[4,3-c]pyridazin-6(5H)-one]
20 | 6.30 to 7.30 | COc1cccc(F)c1-n1nc2c(-c3ccc4c(c3F)CN(C)CC4)n[nH]c2cc1=O [Compound 190, 3-(8-fluoro-2-methyl-1,2,3,4-tetrahydroisoquinolin-7-yl)-5-(2-fluoro-6-methoxyphenyl)-1H-pyrazolo[4,3-c]pyridazin-6(5H)-one]
21 | 6.30 to 7.30 | Cc1cc(C#N)cc(F)c1-n1nc2c(-c3ccc4c(c3)CN(C(=O)C(C)O)CC4)n[nH]c2cc1=O (stereo not shown) [Compound 173, 3-fluoro-4-(3-(2-(2-hydroxylpropionyl)-1,2,3,4-tetrahydroisoquinolin-7-yl)-6-oxo-1H-pyrazolo[4,3-c]pyridazin-5(6H)-yl)-5-methylbenzonitrile]
22 | 6.30 to 7.30 | COc1cc(F)cc(F)c1-n1nc2c(-c3ccc4c(c3)CN(C)CC4)n[nH]c2cc1=O [Compound 158, 5-(2,4-difluoro-6-methoxyphenyl)-3-(2-methyl-1,2,3,4-tetrahydroisoquinolin-7-yl)-1H-pyrazolo[4,3-c]pyridazin-6(5H)-one]
23 | ≥ 7.30 | COc1cccc(F)c1-n1nc2c(-c3cccc(N4CCC(N)CC4)c3)n[nH]c2cc1=O [Compound 205, 3-(3-(4-aminopiperidin-1-yl)phenyl)-5-(2-fluoro-6-methoxyphenyl)-1H-pyrazolo[4,3-c]pyridazin-6(5H)-one]
24 | 6.30 to 7.30 | COc1ccncc1-n1nc2c(-c3ccc(-c4cnn(C)c4)cc3)n[nH]c2cc1=O [Compound 152, 5-(4-methoxypyrid-3-yl)-3-(4-(1-methyl-1H-pyrazol-4-yl)phenyl)-1H-pyrazolo[4,3-c]pyridazin-6(5H)-one]
25 | 6.30 to 7.30 | Cc1cccc(F)c1-n1nc2c(-c3ccc4c(c3)CCN(C3CCN(C)CC3)C4)n[nH]c2cc1=O [Compound 196, 5-(2-fluoro-6-methylphenyl)-3-(2-(1-methylpiperidin-4-yl)-1,2,3,4-tetrahydroisoquinolin-6-yl)-1H-pyrazolo[4,3-c]pyridazin-6(5H)-one hydrochloride]
26 | ≥ 7.30 | COc1cccc(F)c1-n1nc2c(-c3ccc(N4CCN5C(=O)CN(C)CC5C4)cc3)n[nH]c2cc1=O (stereo not shown) [Compound 132, 8-(4-(5-(2-fluoro-6-methoxyphenyl)-6-oxo-5,6-dihydro-1H-pyrazolo[4,3-c]pyridazin-3-yl)phenyl)-2-methylhexahydro-1H-pyrazino[1,2-a]pyrazin-4(6H)-one]
27 | ≥ 7.30 | Cc1cccc(F)c1-n1nc2c(-c3ccc4c(c3)CN(C)[C@H](CO)C4)n[nH]c2cc1=O [Compound 176, (S)-5-(2-fluoro-6-methylphenyl)-3-(3-(hydroxymethyl)-2-methyl-1,2,3,4-tetrahydroisoquinolin-7-yl)-1H-pyrazolo[4,3-c]pyridazin-6(5H)-one]
28 | ≥ 7.30 | Cc1cccc(F)c1-n1nc2c(-c3cc(N4CCN(C)CC4)ccc3F)n[nH]c2cc1=O [Compound 208, 3-(2-fluoro-5-(4-methylpiperazin-1-yl)phenyl)-5-(2-fluoro-6-methylphenyl)-1H-pyrazolo[4,3-c]pyridazin-6(5H)-one]

— US20230322789A1, “PYRAZOLOPYRIDAZINONE COMPOUND, AND PHARMACEUTICAL COMPOSITION AND USE THEREOF” (BroadenBio Co., Ltd., priority 2020, published 2023)
